Laboratory results taken from US20070154567A1, “Use of mercury to treat cancer” (priority 2006, published 2007).

Tested on: apocrine gland adenocarcinoma, metastatic to lymph node
Experiment: Oral inorganic mercury (II) treatment of a pet Labrador Retriever after surgical removal of the lump: blood data and clinical follow-up
Assay type: in vivo, dog
Set-up: MCV / MCH / MCHC / Neutrophils, absolute / Bands / Lymphocytes, absolute / Monocytes, absolute / Eosinophils, absolute / Basophils, absolute: unit not given here
Description: A 7 years old, 106 lbs male Labrador Retriever, was diagnosed with apocrine gland adenocarcinoma, metastatic to lymph node. The lump on the neck was surgically removed and biopsy analysis was performed.
The owner chose not to pursue chemo- and radiation therapies. Instead, the dog undertook a full course of inorganic mercury (II) treatment. The treatment consisted of total of 150 days including three 30-day treatment courses and two 30-day interval periods between courses. The formulation contained 1 mM mercury acetate in 20 mM sodium acetate buffer, pH 4.5, with 100 mM sucrose and 150 mM sodium chloride additives. The formulation was introduced orally to the pet three times a day 1 hour before taking food at 0.5 micromole Hg^2+/kg/day.
The blood data at Day 175 were normal (see Table 1).

**Q.** How did the “health of the dog” value (13 months after completing the treatment) turn out when `CC(=O)[O-].CC(=O)[O-].[Hg+2]` [inorganic mercury (II), mercury acetate] was run?
**A.** Its value is “continues to be healthy”.

**Q.** And the “ALT (SGPT)” value (Day 175)?
**A.** Its value is 52 U/L.

**Q.** What about the “AST (SGOT)” value (Day 175) of the same compound?
**A.** Its value is 29 U/L.

**Q.** And the Albumin (Day 175)?
**A.** The Albumin was 3.9 g/dL.

**Q.** What about the “Albumin/Globulin Ratio” value (Day 175) of the same compound?
**A.** The value was 1.1.

**Q.** What about the “Alkaline Phosphatase (ALP)” value (Day 175) of the same compound?
**A.** The value was 94 U/L.

**Q.** What about the “BUN/Creatinine Ratio” value (Day 175) of the same compound?
**A.** The value was 17.

**Q.** And the Bands (Day 175)?
**A.** The Bands was 0.

**Q.** And the “Basophils, absolute” value (Day 175)?
**A.** Its value is 0.

**Q.** And the CPK (Day 175)?
**A.** Its CPK is 267 U/L.

**Q.** And the Calcium (Day 175)?
**A.** The Calcium was 10.3 mg/dL.

**Q.** What about the Chloride (Day 175) of the same compound?
**A.** The Chloride was 115 mE/L.

**Q.** And the Cholesterol (Day 175)?
**A.** The Cholesterol was 322 mg/dL.

**Q.** And the Creatinine (Day 175)?
**A.** The Creatinine was 1.2 mg/dL.

**Q.** And the “Eosinophils, (%)” value (Day 175)?
**A.** The value was 5%.

**Q.** What about the “Eosinophils, absolute” value (Day 175) of the same compound?
**A.** The value was 445.

**Q.** And the Globulin (Day 175)?
**A.** Its Globulin is 3.4 g/dL.

**Q.** And the Glucose (Day 175)?
**A.** The Glucose was 105 mg/dL.

**Q.** What about the Hematocrit (Day 175) of the same compound?
**A.** The Hematocrit was 53.7%.

**Q.** And the Hemoglobin (Day 175)?
**A.** Its Hemoglobin is 17.7 g/dL.

**Q.** And the “Lymphocytes, (%)” value (Day 175)?
**A.** Its value is 31%.

**Q.** And the “Lymphocytes, absolute” value (Day 175)?
**A.** Its value is 2759.

**Q.** What about the MCH (Day 175) of the same compound?
**A.** Its MCH is 21.9.

**Q.** And the MCHC (Day 175)?
**A.** The MCHC was 33.0.

**Q.** What about the MCV (Day 175) of the same compound?
**A.** Its MCV is 66.

**Q.** And the “Monocytes, (%)” value (Day 175)?
**A.** Its value is 4%.

**Q.** What about the “Monocytes, absolute” value (Day 175) of the same compound?
**A.** Its value is 356.

**Q.** What about the “Neutrophils, (%)” value (Day 175) of the same compound?
**A.** Its value is 60%.

**Q.** What about the “Neutrophils, absolute” value (Day 175) of the same compound?
**A.** The value was 5340.

**Q.** What about the Phosphorus (Day 175) of the same compound?
**A.** Its Phosphorus is 4.6 mg/dL.

**Q.** And the Platelet count (Day 175)?
**A.** Its Platelet count is 294 10^3/microl.

**Q.** And the Potassium (Day 175)?
**A.** The Potassium was 5.1 mE/L.

**Q.** What about the RBC (Day 175) of the same compound?
**A.** Its RBC is 8.1 10^6/microl.

**Q.** And the Sodium (Day 175)?
**A.** The Sodium was 151 mE/L.

**Q.** What about the “Total Billirubin” value (Day 175) of the same compound?
**A.** The value was 0.2 mg/dL.

**Q.** And the “Total Protein” value (Day 175)?
**A.** Its value is 7.3 g/dL.

**Q.** What about the “Urea Nitrogen” value (Day 175) of the same compound?
**A.** The value was 20 mg/dL.

**Q.** And the WBC (Day 175)?
**A.** Its WBC is 8.9 10^3/microl.

**Q.** What about the blood data (Day 175) of the same compound?
**A.** Its blood data is “normal”.

**Q.** What about the “metastases on chest x-ray” value (Day 356, owner's notes) of the same compound?
**A.** Its value is “no metastases”.

**Q.** What about the “metastasis or new mass growth in abdominal, lymph nodes or chest” value (post treatment evaluation by oncologist and veterinarian, X-rays and ultrasound) of the same compound?
**A.** The value was “no evidence of metastasis or new mass growth”.
